Active and inactive are the calls of the source. No rule for the calls is given here.
System: CCRIS mutagenicity, Ames/micronucleus/aberration tests
Test: CCRIS mutagenicity studies
[1] = Test System: AMES SALMONELLA TYPHIMURIUM, Strain/Indicator: TA98, Metabolic Activation: NONE, Method: PREINCUBATION
[2] = Test System: AMES SALMONELLA TYPHIMURIUM, Strain/Indicator: TA98, Metabolic Activation: NONE, Method: STANDARD PLATE
[3] = Test System: AMES SALMONELLA TYPHIMURIUM, Strain/Indicator: TA98, Metabolic Activation: RAT, LIVER, S-9, AROCLOR 1254, Method: STANDARD PLATE
[4] = Test System: AMES SALMONELLA TYPHIMURIUM, Strain/Indicator: TA100, Metabolic Activation: NONE, Method: PREINCUBATION
[5] = Test System: AMES SALMONELLA TYPHIMURIUM, Strain/Indicator: TA100, Metabolic Activation: NONE, Method: STANDARD PLATE
[6] = Test System: AMES SALMONELLA TYPHIMURIUM, Strain/Indicator: TA100, Metabolic Activation: RAT, LIVER, S-9, AROCLOR 1254, Method: STANDARD PLATE
[7] = Test System: AMES SALMONELLA TYPHIMURIUM, Strain/Indicator: TA1537, Metabolic Activation: NONE, Method: STANDARD PLATE
[8] = Test System: AMES SALMONELLA TYPHIMURIUM, Strain/Indicator: TA1537, Metabolic Activation: RAT, LIVER, S-9, AROCLOR 1254, Method: STANDARD PLATE
[9] = Test System: AMES SALMONELLA TYPHIMURIUM, Strain/Indicator: TA98, Metabolic Activation: RAT, LIVER, S-9, AROCLOR 1254, Method: PREINCUBATION
[10] = Test System: AMES SALMONELLA TYPHIMURIUM, Strain/Indicator: TA100, Metabolic Activation: RAT, LIVER, S-9, AROCLOR 1254, Method: PREINCUBATION
[11] = Test System: AMES SALMONELLA TYPHIMURIUM, Strain/Indicator: TA1535, Metabolic Activation: NONE, Method: PREINCUBATION
[12] = Test System: AMES SALMONELLA TYPHIMURIUM, Strain/Indicator: TA1537, Metabolic Activation: NONE, Method: PREINCUBATION

Nc1cc2nc3ccccc3nc2cc1N
mutagenic call (Test System: AMES SALMONELLA TYPHIMURIUM, Strain/Indicator: TA98(1,8-DNP6), Metabolic Activation: NONE, Method: PREINCUBATION): inactive; negative
mutagenic call (Test System: AMES SALMONELLA TYPHIMURIUM, Strain/Indicator: TA98(1,8-DNP6), Metabolic Activation: S-9, Method: PREINCUBATION): active; positive
mutagenic call [1]: inactive; negative
mutagenic call [2]: active; positive
mutagenic call [3]: active; positive
mutagenic call (Test System: AMES SALMONELLA TYPHIMURIUM, Strain/Indicator: TA98, Metabolic Activation: S-9, Method: PREINCUBATION): active; positive
mutagenic call (Test System: AMES SALMONELLA TYPHIMURIUM, Strain/Indicator: TA98, Metabolic Activation: S-9, Method: SUSPENSION/PLATE): active; positive
mutagenic call (Test System: AMES SALMONELLA TYPHIMURIUM, Strain/Indicator: TA100(OAT-), Metabolic Activation: NONE, Method: PREINCUBATION): inactive; negative
mutagenic call (Test System: AMES SALMONELLA TYPHIMURIUM, Strain/Indicator: TA100(OAT-), Metabolic Activation: S-9, Method: PREINCUBATION): inactive; negative
mutagenic call [4]: inactive; negative
mutagenic call [5]: inactive; negative
mutagenic call [6]: active; positive
mutagenic call (Test System: AMES SALMONELLA TYPHIMURIUM, Strain/Indicator: TA100, Metabolic Activation: S-9, Method: PREINCUBATION): active; positive
mutagenic call (Test System: AMES SALMONELLA TYPHIMURIUM, Strain/Indicator: TA1029, Metabolic Activation: S-9, Method: PREINCUBATION): active; positive
mutagenic call [7]: active; positive
mutagenic call [8]: active; positive
mutagenic call (Test System: AMES SALMONELLA TYPHIMURIUM, Strain/Indicator: YG1024, Metabolic Activation: PLANT CELL-FREE EXTRACT, Method: PREINCUBATION): active; positive
mutagenic call (Test System: AMES SALMONELLA TYPHIMURIUM, Strain/Indicator: YG1024, Metabolic Activation: S-9, Method: PREINCUBATION): active; positive
mutagenic call (Test System: AMES SALMONELLA TYPHIMURIUM, Strain/Indicator: YG1029, Metabolic Activation: PLANT CELL-FREE EXTRACT, Method: PREINCUBATION): active; positive
mutagenic call (Test System: AMES SALMONELLA TYPHIMURIUM, Strain/Indicator: YG1029, Metabolic Activation: S-9, Method: PREINCUBATION): active; positive

Oc1cc(Cl)cc(Cl)c1
mutagenic call (Test System: AMES SALMONELLA TYPHIMURIUM, Strain/Indicator: TA98, Metabolic Activation: HAMSTER, LIVER, S-9, AROCLOR 1254, Method: PREINCUBATION): inactive; negative
mutagenic call [1]: inactive; negative
mutagenic call [9]: inactive; negative
mutagenic call (Test System: AMES SALMONELLA TYPHIMURIUM, Strain/Indicator: TA100, Metabolic Activation: HAMSTER, LIVER, S-9, AROCLOR 1254, Method: PREINCUBATION): inactive; negative
mutagenic call [4]: inactive; negative
mutagenic call [10]: inactive; negative
mutagenic call (Test System: AMES SALMONELLA TYPHIMURIUM, Strain/Indicator: TA1535, Metabolic Activation: HAMSTER, LIVER, S-9, AROCLOR 1254, Method: PREINCUBATION): inactive; negative
mutagenic call [11]: inactive; negative
mutagenic call (Test System: AMES SALMONELLA TYPHIMURIUM, Strain/Indicator: TA1535, Metabolic Activation: RAT, LIVER, S-9, AROCLOR 1254, Method: PREINCUBATION): inactive; negative
mutagenic call (Test System: AMES SALMONELLA TYPHIMURIUM, Strain/Indicator: TA1537, Metabolic Activation: HAMSTER, LIVER, S-9, AROCLOR 1254, Method: PREINCUBATION): inactive; negative
mutagenic call [12]: inactive; negative
mutagenic call (Test System: AMES SALMONELLA TYPHIMURIUM, Strain/Indicator: TA1537, Metabolic Activation: RAT, LIVER, S-9, AROCLOR 1254, Method: PREINCUBATION): inactive; negative

O=O
mutagenic call (Test System: AMES SALMONELLA TYPHIMURIUM, Strain/Indicator: TA92, Metabolic Activation: NONE, Method: PREINCUBATION): inactive; negative
mutagenic call (Test System: AMES SALMONELLA TYPHIMURIUM, Strain/Indicator: TA97, Metabolic Activation: NONE, Method: PREINCUBATION): inactive; negative
mutagenic call [4]: inactive; negative
mutagenic call (Test System: AMES SALMONELLA TYPHIMURIUM, Strain/Indicator: TA102, Metabolic Activation: NONE, Method: PREINCUBATION): active; positive
mutagenic call (Test System: AMES SALMONELLA TYPHIMURIUM, Strain/Indicator: TA104, Metabolic Activation: NONE, Method: PREINCUBATION): active; positive
mutagenic call [11]: inactive; negative
mutagenic call [12]: inactive; negative
mutagenic call (Test System: CHINESE HAMSTER V-79, Strain/Indicator: V-79/8-AZAGUANINE, Metabolic Activation: NONE, Method: STANDARD PLATE): active; positive
mutagenic call (Test System: CHINESE HAMSTER V-79 CELLS, Strain/Indicator: V-79-UL (HPRT)/6-THIOGUANINE, Metabolic Activation: NONE, Method: SUSPENSION/PLATE): active; positive
mutagenic call (Test System: MOUSE LYMPHOMA, Strain/Indicator: L5178Y (TK+/-), Metabolic Activation: NONE, Method: SUSPENSION/PLATE): active; positive

CC(OP(=O)(OC(C)C(Br)CBr)OC(C)C(Br)CBr)C(Br)CBr (stereo not drawn)
mutagenic call (Test System: AMES SALMONELLA TYPHIMURIUM, Strain/Indicator: TA100, Metabolic Activation: RAT, LIVER, MICROSOMES, PHENOBARBITAL, Method: PREINCUBATION): active; positive
mutagenic call (Test System: AMES SALMONELLA TYPHIMURIUM, Strain/Indicator: TA100, Metabolic Activation: RAT, LIVER, MICROSOMES, Method: PREINCUBATION): active; positive

Cn1ccc2c3c(ccc4ccc(O)cc43)ccc21
mutagenic call [3]: inactive; negative
mutagenic call (Test System: AMES SALMONELLA TYPHIMURIUM, Strain/Indicator: TA98, Metabolic Activation: RAT, LIVER, S-9, AROCLOR, Method: STANDARD PLATE): active; positive

O=NN(CC(=O)O)CC1(O)OCC(O)C(O)C1O (stereo not drawn)
mutagenic call [2]: inactive; negative
mutagenic call [9]: inactive; negative
mutagenic call [3]: inactive; negative
mutagenic call [5]: inactive; negative
mutagenic call [10]: inactive; negative
mutagenic call [6]: inactive; negative
mutagenic call (Test System: AMES SALMONELLA TYPHIMURIUM, Strain/Indicator: TA1535, Metabolic Activation: NONE, Method: STANDARD PLATE): inactive; negative
mutagenic call (Test System: AMES SALMONELLA TYPHIMURIUM, Strain/Indicator: TA1535, Metabolic Activation: RAT, LIVER, S-9, AROCLOR 1254, Method: STANDARD PLATE): inactive; negative
mutagenic call [7]: inactive; negative
mutagenic call [8]: inactive; negative
mutagenic call (Test System: AMES SALMONELLA TYPHIMURIUM, Strain/Indicator: TA1538, Metabolic Activation: NONE, Method: STANDARD PLATE): inactive; negative
mutagenic call (Test System: AMES SALMONELLA TYPHIMURIUM, Strain/Indicator: TA1538, Metabolic Activation: RAT, LIVER, S-9, AROCLOR 1254, Method: STANDARD PLATE): inactive; negative
